Reference: patent publication US9539298B2, “Lissencephaly therapeutic agent” (OSAKA CITY UNIVERSITY, priority 2010, dated 2017)

Tested on: fibroblasts established from LIS1 heterozygous mice (MEF)
Experiment: Change in intracellular protein localization by SNJ-1945 (immunocytochemistry)
Type: cell-based, mouse
Details: 200 μM, 2 hours
Protocol: A LIS1 gene hetero-deficient mice group and a wild-type mice (12.5- to 14.5-day-old embryos) group each consisting of five mice were prepared, and fibroblasts (MEF; mouse embryonic fibroblast) were established from each group in the same manner as above (more specifically, fibroblasts were established by grouping the same gene type). Using the cells, immunocytochemistry was performed as follows. The influence of SNJ-1945 on intracellular protein localization in each cell was analyzed. First, a slide glass (24×24 mm; Matsunami Glass Ind., Ltd.) washed beforehand with 0.1 N hydrochloric acid was placed on a 6-well plate (Nunc), and MEF cells were seeded in an amount of 1.0×10^5 cells per well in a D-MEM culture solution (containing 10% fetal bovine blood serum; Wako Pure Chemical Ind. Ltd.). Subsequently, the 6-well plate was cultured overnight at 37° C. under 5% CO2, and SNJ-1945 was added thereto so that the final concentration became 200 μM. The incubation was performed for another 2 hours under the same conditions.
As a control experiment, the same experiment was performed by adding 1% dimethylsulfoxide (DMSO). After washing with phosphate buffer (PBS), the MEF cells were immobilized using 4% paraformaldehyde (Wako, 162-16065) (at room temperature, for 15 minutes). […] After incubation, the cells were washed well with PBS, and embedded using glycerol (Merck) for fluorescence microscope observation. […]
After careful observation using a confocal laser microscope (TCS-SP5, Leica), the intracellular locations of the individual factors in MEF cells under varying conditions are classified into “cells clustered around the nucleus” and “cells distributed to the entire cytoplasm.” For each cell group, 10 samples, each of which consists of 10 arbitrarily extracted cells, i.e., 100 cells in total for each group, were evaluated, and the average value±standard deviation was calculated. […]

## COCCOCCOC(=O)N[C@@H](CC(C)C)C(=O)N[C@@H](Cc1ccccc1)C(=O)C(=O)NC1CC1 [compound 17, ((1S)-1-((((1S)-1-Benzyl-2,3-dioxo-3-(cyclopropylamino)propyl)amino)carbonyl)-3-methylbutyl)carbamic acid 5-methoxy-3-oxapentyl ester]
FIG. 2
  LIS1 amount around the centrosome (intracellular localization): the LIS1 amount can be recovered
FIG. 3
  cytoplasmatic dynein amount / localization: the cytoplasmatic dynein amount can also be recovered
FIG. 4
  β-COP distribution: the distribution is normalized
